Values quoted from earlier work, collected in US20110160253A1, “DEUTERATED TIZANIDINE” (priority 2008, published 2011).

Key:
[1] = primary cytochrome P450 isoenzyme involved being CYP1A2
[2] = patients treated with tizanidine; appears to be dose related

administered dose that is metabolized [1]: Approximately 95%
Compound: Clc1ccc2nsnc2c1NC1=NCCN1 [Tizanidine, 5-chloro-4-(2-imidazolin-2-ylamino)-2,1,3-benzothiodiazole]
patients who report sedation [2]: 48%
